Source: patent US11427548B2 (Arvinas Operations, Inc., priority 2015, dated 2022)
Like-named read-outs stand apart in the source and are kept apart here.

Biological target: T1, Androgen Receptor (Homo sapiens, UniProt P10275)
T1 construct: endogenous in cells; host or cells: VCaP cells
T1 sequence (P10275 1-920): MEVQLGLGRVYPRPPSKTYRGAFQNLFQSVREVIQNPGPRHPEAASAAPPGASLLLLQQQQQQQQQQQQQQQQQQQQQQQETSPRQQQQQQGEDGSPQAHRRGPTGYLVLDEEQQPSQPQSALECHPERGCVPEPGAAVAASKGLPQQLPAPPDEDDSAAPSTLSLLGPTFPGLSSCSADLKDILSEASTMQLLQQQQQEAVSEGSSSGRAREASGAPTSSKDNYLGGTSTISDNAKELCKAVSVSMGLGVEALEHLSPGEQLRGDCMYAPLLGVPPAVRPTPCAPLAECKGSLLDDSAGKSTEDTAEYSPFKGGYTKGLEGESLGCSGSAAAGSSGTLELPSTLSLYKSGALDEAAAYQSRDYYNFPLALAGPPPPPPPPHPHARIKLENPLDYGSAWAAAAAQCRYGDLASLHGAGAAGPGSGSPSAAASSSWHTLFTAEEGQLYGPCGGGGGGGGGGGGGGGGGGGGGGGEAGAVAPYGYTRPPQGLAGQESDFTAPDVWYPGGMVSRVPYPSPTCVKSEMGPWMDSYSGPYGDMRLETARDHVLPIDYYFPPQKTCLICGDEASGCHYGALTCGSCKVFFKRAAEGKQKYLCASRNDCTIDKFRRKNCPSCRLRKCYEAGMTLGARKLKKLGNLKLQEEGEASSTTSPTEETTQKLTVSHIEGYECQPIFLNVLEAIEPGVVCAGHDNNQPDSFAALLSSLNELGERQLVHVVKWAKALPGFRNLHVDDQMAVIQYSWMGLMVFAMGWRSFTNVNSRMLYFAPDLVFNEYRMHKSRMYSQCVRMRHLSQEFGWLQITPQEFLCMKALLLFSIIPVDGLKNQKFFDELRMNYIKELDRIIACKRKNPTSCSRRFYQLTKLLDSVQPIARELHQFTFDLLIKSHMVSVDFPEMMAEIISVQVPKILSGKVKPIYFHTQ
Assay: Androgen Receptor ELISA assay (PathScan AR ELISA) in VCaP cells: AR degradation, Dmax and DC50
Assay type: cell-based
Method in brief: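 VCaP cells, 30,000/well, grown ≥3 days in phenol red-free RPMI with 5% charcoal-stripped FBS; compound added in 0.1% DMSO with 0.1 nM R1881, 7 half-log doses, 24 h. Lysate AR quantified by PathScan sandwich ELISA, HRP/TMB read at 450 nm, giving DC50 and Dmax.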

[1] = VCaP cells; Table 36; read-out: VCaP DC50
[2] = VCaP, VCaP cells; Table 36; read-out: VCaP Dmax (%)

**Q.** With `Cc1ncsc1-c1ccc([C@H](C)NC(=O)[C@@H]2C[C@@H](O)CN2C(=O)[C@@H](NC(=O)CCCCc2ccc(C(=O)N[C@H]3C(C)(C)[C@H](Oc4ccc(C#N)c(Cl)c4)C3(C)C)cc2)C(C)(C)C)cc1` [Example 755, (2S,4R)-1-((S)-2-(5-(4-(((1r,3S)-3-(3-chloro-4-cyanophenoxy)-2,2,4,4-tetramethylcyclobutyl)carbamoyl)phenyl)pentan-amido)-3,3-dimethylbutanoyl)-4-hydroxy-N-((S)-1-(4-(4-methylthiazol-5-yl)phenyl)ethyl)pyrrolidine-2-carboxamide] as the compound, how does the DC50 [1] read?
**A.** > 501 nM

**Q.** And the Dmax [2]?
**A.** 26 to 50%

**Q.** For `Cc1ncoc1-c1ccc(CNC(=O)[C@@H]2C[C@@H](O)CN2C(=O)[C@@H](NC(=O)COCCCOCCCCOc2ccc(N3C(=S)N(c4cnc(C#N)c(Cl)c4)C(=O)C3(C)C)cc2)C(C)(C)C)cc1` [Example 338], which DC50 (VCaP cells; Table 34; read-out: VCaP DC50) is on record?
**A.** < 50 nM

**Q.** And the Dmax (VCaP, VCaP cells; Table 34; read-out: VCaP Dmax (%))?
**A.** 51 to 70%

**Q.** Which results are given for `Cc1ncoc1-c1ccc(CNC(=O)[C@@H]2C[C@@H](O)CN2C(=O)[C@@H](NC(=O)COCCCCCNc2ccc(C(=O)N[C@H]3C(C)(C)[C@H](Oc4ccc(C#N)c(Cl)c4)C3(C)C)cc2)C(C)(C)C)cc1` [Example 173, (2S,4R)-1-[(2S)-3,3-dimethyl-2-[2-({5-[(4-{[trans-3-(3-chloro-4-cyanophenoxy)-2,2,4,4-tetramethylcyclobutyl]carbamoyl}phenyl)amino]pentyl}oxy)acetamido]butanoyl]-4-hydroxy-N-{[4-(4-methyl-1,3-oxazol-5-yl)phenyl]methyl}pyrrolidine-2-carboxamide]?
**A.** Dmax (VCaP, highest percentage of Androgen Receptor degradation observed, VCaP cells (Table 32); read-out: VCaP Dmax (%)): > 71%; DC50 (concentration that caused 50% Androgen Receptor degradation, VCaP cells (Table 32); read-out: VCaP DC50): < 50 nM

**Q.** `Cc1ncsc1-c1ccc([C@H](C)NC(=O)[C@@H]2C[C@H](F)CN2C(=O)[C@@H](NC(=O)COCCN2CCN(c3ccc(C(=O)N[C@H]4C(C)(C)[C@H](Oc5ccc(C#N)c(Cl)c5)C4(C)C)cn3)CC2)C(C)(C)C)cc1` [Example 721, N-((1r,3r)-3-(3-chloro-4-cyanophenoxy)-2,2,4,4-tetramethylcyclobutyl)-6-(4-(2-(2-(((S)-1-((2S,4S)-4-fluoro-2-(((S)-1-(4-(4-methylthiazol-5-yl)phenyl)ethyl)carbam-oyl)pyrrolidin-1-yl)-3,3-dimethyl-1-oxobutan-2-yl)amino)-2-oxoethoxy)ethyl)pipera-zin-1-yl)nicotinamide] was tested. Which DC50 [1] did it give?
**A.** > 501 nM

**Q.** What about the Dmax (VCaP, read-out: VCaP Dmax (%), VCaP cells; Table 36) of the same compound?
**A.** < 25%

**Q.** For `Cc1ncsc1-c1ccc(CNC(=O)[C@@H]2C[C@@H](O)CN2C(=O)[C@@H](NC(=O)COCCCCOc2ccc(-c3ccc(N4C(=S)N(c5ccc(C#N)c(C(F)(F)F)c5)C(=O)C4(C)C)cn3)cc2)C(C)(C)C)cc1` [Example 102, (2S,4R)-1-[(2S)-2-(2-{4-[4-(5-{3-[4-cyano-3-(trifluoromethyl)phenyl]-5,5-dimethyl-4-oxo-2-sulfanylideneimidazolidin-1-yl}pyridin-2-yl)phenoxy]butoxy}acetamido)-3,3-dimethylbutanoyl]-4-hydroxy-N-{[4-(4-methyl-1,3-thiazol-5-yl)phenyl]methyl}pyrrolidine-2-carboxamide], which Dmax (VCaP, read-out: VCaP Dmax (%)) is on record?
**A.** > 71%

**Q.** And the DC50 (read-out: VCaP DC50; concentration that caused 50% Androgen Receptor degradation, VCaP cells (Table 32))?
**A.** < 50 nM

**Q.** `CO[C@@H]1C[C@@H](C(=O)N(C)Cc2ccc(-c3scnc3C)cc2)N(C(=O)[C@@H](N(C)C(=O)COCCCCCN(C)c2ccc(C(=O)N(C)[C@H]3C(C)(C)[C@H](Oc4ccc(C#N)c(C(F)(F)F)c4)C3(C)C)nc2)C(C)(C)C)C1` [Example 709, N-((1r,3r)-3-(4-cyano-3-(trifluoromethyl)phenoxy)-2,2,4,4-tetramethylcyclobutyl)-5-((5-(2-(((S)-1-((2S,4R)-4-methoxy-2-(methyl(4-(4-methylthiazol-5-yl)benzyl)carbamoyl)pyrrolidin-1-yl)-3,3-dimethyl-1-oxobutan-2-yl)(methyl)amino)-2-oxoethoxy)pentyl)(meth-yl)amino)-N-methylpicolinamide] was tested. Which DC50 [1] did it give?
**A.** > 501 nM

**Q.** What about the Dmax [2] of the same compound?
**A.** < 25%

**Q.** With `Cc1ncsc1-c1ccc(CNC(=O)[C@@H]2C[C@@H](O)CN2C(=O)[C@@H](NC(=O)COCCCCCS(=O)(=O)c2ccc(C(=O)N[C@H]3C(C)(C)[C@H](Oc4ccc(C#N)c(Cl)c4)C3(C)C)cc2)C(C)(C)C)cc1` [Example 476] as the compound, how does the DC50 (VCaP cells; Table 35; read-out: VCaP DC50) read?
**A.** < 50 nM

**Q.** What about the Dmax (VCaP, VCaP cells; Table 35; read-out: VCaP Dmax (%)) of the same compound?
**A.** > 71%
